Measured values reported in paper PMC4891385 (Clinical Drug Investigation, 2016).

Experiments:
OATP1B1 = biological target: T1, OATP1B1 (Homo sapiens, UniProt Q9Y6L6); test: [14C]-lesinurad uptake, substrate test, hOATP1B1 MDCK-II cells; type: in vitro ADME
T1 sequence (Q9Y6L6 1-691): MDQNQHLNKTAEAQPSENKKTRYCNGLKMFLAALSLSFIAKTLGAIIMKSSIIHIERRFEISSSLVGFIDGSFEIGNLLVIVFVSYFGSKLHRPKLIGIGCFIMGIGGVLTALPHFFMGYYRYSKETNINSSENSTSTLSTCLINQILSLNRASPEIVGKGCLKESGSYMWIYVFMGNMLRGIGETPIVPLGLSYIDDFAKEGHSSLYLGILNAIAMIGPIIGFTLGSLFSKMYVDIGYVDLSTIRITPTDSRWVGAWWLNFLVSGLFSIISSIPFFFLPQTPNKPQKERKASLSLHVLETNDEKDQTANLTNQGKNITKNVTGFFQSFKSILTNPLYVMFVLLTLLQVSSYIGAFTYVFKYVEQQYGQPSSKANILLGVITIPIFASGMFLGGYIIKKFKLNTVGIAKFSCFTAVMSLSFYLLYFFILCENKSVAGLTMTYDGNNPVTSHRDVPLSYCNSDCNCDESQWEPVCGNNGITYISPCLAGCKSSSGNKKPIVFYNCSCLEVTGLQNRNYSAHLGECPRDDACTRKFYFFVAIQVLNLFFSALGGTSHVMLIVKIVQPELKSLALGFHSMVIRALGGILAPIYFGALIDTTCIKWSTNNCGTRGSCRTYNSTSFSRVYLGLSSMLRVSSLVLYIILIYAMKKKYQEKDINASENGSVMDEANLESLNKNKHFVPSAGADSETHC

OCT1 = biological target: T2, OCT1 (Homo sapiens, UniProt O15245); test: [14C]-lesinurad uptake, substrate test, hOCT1 MDCK-II cells; type: in vitro ADME
T2 sequence (O15245 1-554): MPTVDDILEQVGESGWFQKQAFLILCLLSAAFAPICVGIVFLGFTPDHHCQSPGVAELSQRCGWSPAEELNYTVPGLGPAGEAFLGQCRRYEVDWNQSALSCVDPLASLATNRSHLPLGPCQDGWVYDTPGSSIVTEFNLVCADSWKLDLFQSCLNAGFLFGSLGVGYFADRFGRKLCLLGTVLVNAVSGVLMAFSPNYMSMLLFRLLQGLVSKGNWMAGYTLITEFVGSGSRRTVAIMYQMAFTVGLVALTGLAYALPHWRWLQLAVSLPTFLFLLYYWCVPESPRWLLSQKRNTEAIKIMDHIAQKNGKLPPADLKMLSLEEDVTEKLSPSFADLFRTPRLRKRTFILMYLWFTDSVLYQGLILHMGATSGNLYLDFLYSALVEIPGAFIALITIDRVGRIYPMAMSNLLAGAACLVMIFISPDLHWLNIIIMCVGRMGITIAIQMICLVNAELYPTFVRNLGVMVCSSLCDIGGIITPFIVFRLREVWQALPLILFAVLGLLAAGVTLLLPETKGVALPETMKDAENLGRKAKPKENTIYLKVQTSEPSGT

BCRP = biological target: T3, BCRP (Homo sapiens, UniProt Q9UNQ0); test: [14C]-lesinurad substrate test, BCRP in Caco-2 cells; type: in vitro ADME
T3 sequence (Q9UNQ0 1-655): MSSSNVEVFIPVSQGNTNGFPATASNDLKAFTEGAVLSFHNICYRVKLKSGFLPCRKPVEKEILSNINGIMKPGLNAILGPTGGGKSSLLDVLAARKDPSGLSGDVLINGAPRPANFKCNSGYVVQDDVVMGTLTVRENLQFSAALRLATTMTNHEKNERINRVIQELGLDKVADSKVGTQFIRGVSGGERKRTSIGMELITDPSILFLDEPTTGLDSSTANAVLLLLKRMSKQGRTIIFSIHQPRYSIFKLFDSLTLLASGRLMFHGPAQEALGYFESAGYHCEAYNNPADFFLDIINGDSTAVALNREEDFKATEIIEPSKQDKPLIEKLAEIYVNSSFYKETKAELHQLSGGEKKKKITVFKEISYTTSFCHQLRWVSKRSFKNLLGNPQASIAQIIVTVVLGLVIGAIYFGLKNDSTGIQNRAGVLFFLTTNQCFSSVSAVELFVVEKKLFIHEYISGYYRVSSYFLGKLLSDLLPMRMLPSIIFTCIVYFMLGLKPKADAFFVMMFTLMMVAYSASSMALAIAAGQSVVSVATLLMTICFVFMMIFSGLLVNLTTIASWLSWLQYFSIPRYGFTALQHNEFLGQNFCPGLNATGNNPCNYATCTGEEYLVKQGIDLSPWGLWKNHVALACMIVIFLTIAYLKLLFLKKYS

[1] = no reference given; cited from earlier work

Compound: O=C(O)CSc1nnc(Br)n1-c1ccc(C2CC2)c2ccccc12 [lesinurad]
- Lesinurad as substrate (OATP1B1): weak substrate
- increase in lesinurad uptake in transfected versus non-transfected cells (OATP1B1; lesinurad 10 µM): 2.25 fold
- Lesinurad as substrate (OCT1): weak substrate
- Lesinurad as substrate (BCRP): minor substrate
- accumulation during multiple once-daily dosing [1]: does not accumulate
